Experiments:
human TLR7 = biological target: T1, human TLR7 (Homo sapiens, UniProt Q9NYK1); test: TLR7 inhibition reporter assay (HEK-Blue cells, SEAP reporter, gardiquimod stimulation); type: cell-based; conditions: HEK-Blue cells overexpressing human TLR7, gardiquimod 7.5 μM
T1 construct: host or cells: HEK-Blue cells
T1 sequence (Q9NYK1 27-1049): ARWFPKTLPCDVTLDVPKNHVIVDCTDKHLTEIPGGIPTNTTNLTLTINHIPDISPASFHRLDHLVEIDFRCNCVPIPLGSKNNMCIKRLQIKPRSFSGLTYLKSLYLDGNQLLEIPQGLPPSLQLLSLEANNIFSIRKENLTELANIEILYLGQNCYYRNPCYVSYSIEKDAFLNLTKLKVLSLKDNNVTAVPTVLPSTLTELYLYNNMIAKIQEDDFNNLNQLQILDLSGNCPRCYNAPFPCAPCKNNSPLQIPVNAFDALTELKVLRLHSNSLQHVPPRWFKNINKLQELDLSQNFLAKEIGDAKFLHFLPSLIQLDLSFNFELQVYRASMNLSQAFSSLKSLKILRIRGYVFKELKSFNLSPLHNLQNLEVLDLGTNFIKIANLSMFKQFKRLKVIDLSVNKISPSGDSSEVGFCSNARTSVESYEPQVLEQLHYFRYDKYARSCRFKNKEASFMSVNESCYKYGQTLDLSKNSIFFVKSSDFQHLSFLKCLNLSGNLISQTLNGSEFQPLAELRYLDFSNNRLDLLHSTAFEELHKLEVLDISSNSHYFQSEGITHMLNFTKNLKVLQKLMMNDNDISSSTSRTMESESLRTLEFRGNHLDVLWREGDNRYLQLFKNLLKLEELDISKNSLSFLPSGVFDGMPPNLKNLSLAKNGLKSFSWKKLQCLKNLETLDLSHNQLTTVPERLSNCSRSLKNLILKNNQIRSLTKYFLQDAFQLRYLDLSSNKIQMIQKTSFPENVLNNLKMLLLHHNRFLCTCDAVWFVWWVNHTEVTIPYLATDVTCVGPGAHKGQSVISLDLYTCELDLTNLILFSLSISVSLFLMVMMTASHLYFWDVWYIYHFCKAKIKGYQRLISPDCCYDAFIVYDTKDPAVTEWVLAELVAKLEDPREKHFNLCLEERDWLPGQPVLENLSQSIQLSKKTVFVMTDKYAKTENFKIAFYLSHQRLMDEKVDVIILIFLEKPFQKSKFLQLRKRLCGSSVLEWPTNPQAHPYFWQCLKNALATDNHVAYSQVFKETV
Protocol: (§1) TLR7/8/9 Inhibition Reporter Assays
Briefly, cells are seeded into Greiner 384 well plates (15000 cells per well for TLR7, 20,000 for TLR8 and 25,000 for TLR9) and then treated with test compounds in DMSO to yield a final dose response concentration range of 0.05 nM-50 μM. […] After a 22 hour incubation at 37° C., 5% CO2, SEAP levels are determined with the addition of HEK-Blue™ Detection reagent (Invivogen), a cell culture medium that allows for detection of SEAP, according to manufacturer's specifications. The percent inhibition is determined as the % reduction in the HEK-Blue signal present in wells treated with agonist plus DMSO alone compared to wells treated with a known inhibitor.

human TLR9 = biological target: T2, human TLR9 (Homo sapiens, UniProt Q9NR96); test: TLR9 inhibition reporter assay (HEK-Blue cells, SEAP reporter, ODN2006 stimulation); type: cell-based; conditions: HEK-Blue cells overexpressing human TLR9, ODN2006 5 nM
T2 construct: host or cells: HEK-Blue cells
T2 sequence (Q9NR96 26-1032): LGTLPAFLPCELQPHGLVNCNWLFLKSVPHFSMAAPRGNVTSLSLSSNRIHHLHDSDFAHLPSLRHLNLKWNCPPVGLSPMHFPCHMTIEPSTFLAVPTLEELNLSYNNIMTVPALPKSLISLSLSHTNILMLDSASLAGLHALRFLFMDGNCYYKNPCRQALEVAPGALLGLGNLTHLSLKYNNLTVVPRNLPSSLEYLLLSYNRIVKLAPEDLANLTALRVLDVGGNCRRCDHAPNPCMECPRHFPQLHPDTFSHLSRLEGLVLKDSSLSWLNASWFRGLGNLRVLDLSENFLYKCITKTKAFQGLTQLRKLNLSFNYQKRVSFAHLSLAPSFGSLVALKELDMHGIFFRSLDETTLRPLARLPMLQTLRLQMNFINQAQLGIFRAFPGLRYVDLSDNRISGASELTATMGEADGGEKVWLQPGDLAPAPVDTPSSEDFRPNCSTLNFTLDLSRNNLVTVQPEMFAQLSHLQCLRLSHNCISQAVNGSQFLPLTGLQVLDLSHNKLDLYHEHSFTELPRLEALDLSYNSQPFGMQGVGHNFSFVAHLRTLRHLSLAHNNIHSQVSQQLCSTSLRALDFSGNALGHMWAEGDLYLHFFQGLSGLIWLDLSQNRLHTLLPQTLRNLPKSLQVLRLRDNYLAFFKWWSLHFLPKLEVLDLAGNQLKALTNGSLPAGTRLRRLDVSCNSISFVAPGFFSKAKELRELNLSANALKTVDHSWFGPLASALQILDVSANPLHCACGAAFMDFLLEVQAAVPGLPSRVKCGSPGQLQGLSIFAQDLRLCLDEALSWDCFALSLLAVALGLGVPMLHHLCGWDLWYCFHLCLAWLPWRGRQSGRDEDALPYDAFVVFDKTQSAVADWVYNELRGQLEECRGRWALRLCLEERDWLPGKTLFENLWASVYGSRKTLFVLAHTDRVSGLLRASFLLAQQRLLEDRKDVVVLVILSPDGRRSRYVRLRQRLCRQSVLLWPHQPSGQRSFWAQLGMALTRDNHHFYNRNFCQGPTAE
Protocol: as §1
HEK-Blue™-cells (Invivogen) overexpressing human TLR7, TLR8 or TLR9 receptors were used for screening inhibitors of these receptors using an inducible SEAP (secreted embryonic alkaline phosphatase) reporter gene under the control of the IFN-β minimal promoter fused to five NF-κB and AP-1-binding sites. Briefly, cells are seeded into Greiner 384 well plates (15000 cells per well for TLR7, 20,000 for TLR8 and 25,000 for TLR9) and then treated with test compounds in DMSO to yield a final dose response concentration range of 0.05 nM-50 μM. After a 30 minute compound pre-treatment at room temperature, the cells are then stimulated with a TLR7 ligand (gardiquimod at a final concentration of 7.5 μM), TLR8 ligand (R848 at a final concentration of 15.9 μM) or TLR9 ligand (ODN2006 at a final concentration of 5 nM) to activate NF-κB and AP-1 which induce the production of SEAP. After a 22 hour incubation at 37° C., 5% CO2, SEAP levels are determined with the addition of HEK-Blue™ Detection reagent (Invivogen), a cell culture medium that allows for detection of SEAP, according to manufacturer's specifications. The percent inhibition is determined as the % reduction in the HEK-Blue signal present in wells treated with agonist plus DMSO alone compared to wells treated with a known inhibitor.

Row | Structure (SMILES) | IC50 (human TLR7) [nM] | IC50 (human TLR9) [nM]
1 | COc1ccc(-c2[nH]c3ccc(C4CCN(C5CCN(C6CCCC(C)C6)CC5)CC4)cc3c2C)cc1OC (stereo not drawn) [Example 67, 2-(3,4-dimethoxyphenyl)-3-methyl-5-(1′-(3-methylcyclohexyl)-[1,4′-bipiperidin]-4-yl)-1H-indole] | 1950 | 70
2 | COc1ccc(-c2[nH]c3ccc(C4CCN(Cc5cnc(C)[nH]5)CC4)cc3c2C)cc1OC [Example 4, 2-(3,4-dimethoxyphenyl)-3-methyl-5-(1-((2-methyl-1H-imidazol-5-yl)methyl)piperidin-4-yl)-1H-indole] | 3770 | 190
3 | COc1ccc(-c2[nH]c3ccc(C4CCN(Cc5ccccn5)CC4)cc3c2C)cc1OC [Example 28, 2-(3,4-dimethoxyphenyl)-3-methyl-5-(1-(pyridin-2-ylmethyl)piperidin-4-yl)-1H-indole] | 638 | 1010
4 | COc1ccc(-c2[nH]c3ccc(C4CCN(C5CCN(C6CCOCC6)CC5)CC4)cc3c2C)cc1OC [Example 26, 2-(3,4-dimethoxyphenyl)-3-methyl-5-(1′-(tetrahydro-2H-pyran-4-yl)-[1,4′-bipiperidin]-4-yl)-1H-indole] | 348 | 318
5 | COc1ccc(-c2[nH]c3ccc(C4CCN(C(=O)CNc5cc(C(C)(C)C)n[nH]5)CC4)cc3c2C(C)C)cc1OC [Example 216, 2-((3-(tert-butyl)-1H-pyrazol-5-yl)amino)-1-(4-(2-(3,4-dimethoxyphenyl)-3-isopropyl-1H-indol-5-yl)piperidin-1-yl)ethan-1-one] | 212 | ≥ 50000
6 | COc1ccc(-c2[nH]c3ccc(C4CCN(C(=O)CN5CCCCC5C[C@@H]5CCCN5C)CC4)cc3c2C(C)C)cc1OC (stereo partly drawn) [Example 225, 1-(4-(2-(3,4-dimethoxyphenyl)-3-isopropyl-1H-indol-5-yl)piperidin-1-yl)-2-(2-(((S)-1-methylpyrrolidin-2-yl)methyl)piperidin-1-yl)ethan-1-one] | 445 | 3230
7 | COc1ccc(-c2[nH]c3ccc(C4CCN(CCN(C)C5COC5)CC4)cc3c2C)cc1OC [Example 109, N-(2-(4-(2-(3,4-dimethoxyphenyl)-3-methyl-1H-indol-5-yl)piperidin-1-yl)ethyl)-N-methyloxetan-3-amine] | ≥ 50000 | 17000
8 | COc1ccc(-c2[nH]c3ccc(C4CCN(Cc5cncn5C)CC4)cc3c2C)cc1OC [Example 40, 2-(3,4-dimethoxyphenyl)-3-methyl-5-(1-((1-methyl-1H-imidazol-5-yl)methyl)piperidin-4-yl)-1H-indole] | 512 | 2010
9 | COc1ccc(-c2[nH]c3ccc(C4CCN(CCCO)CC4)cc3c2C)cc1OC [Example 5, 3-(4-(2-(3,4-dimethoxyphenyl)-3-methyl-1H-indol-5-yl)piperidin-1-yl)propan-1-ol] | 1710 | 447
10 | COc1ccc(-c2[nH]c3ccc(C4CCN(Cc5ccc6cnccc6c5)CC4)cc3c2C)cc1OC [Example 31, 6-((4-(2-(3,4-dimethoxyphenyl)-3-methyl-1H-indol-5-yl)piperidin-1-yl)methyl)isoquinoline] | 347 | 225
11 | COc1ccc(-c2[nH]c3ccc(C4CCN(CCN(C)C)CC4)cc3c2C)cc1OC [Example 415, 2-(4-(2-(3,4-dimethoxyphenyl)-3-methyl-1H-indol-5-yl)piperidin-1-yl)-N,N-dimethylethan-1-amine] | 2130 | 1070
12 | COc1ccc(-c2[nH]c3ccc(C4CCN(C5CC(C)(C)N(C)C(C)(C)C5)CC4)cc3c2C)cc1OC [Example 22, 2-(3,4-dimethoxyphenyl)-3-methyl-5-(1′,2′,2′,6′,6′-pentamethyl-[1,4′-bipiperidin]-4-yl)-1H-indole] | 1160 | 1110
13 | COc1ccc(-c2[nH]c3ccc(C4CCN(Cc5cccc(C(F)(F)F)c5)CC4)cc3c2C(C)C)cc1OC [Example 269, 2-(3,4-dimethoxyphenyl)-3-isopropyl-5-(1-(3-(trifluoromethyl)benzyl)piperidin-4-yl)-1H-indole] | 2690 | 18600
14 | COc1ccc(-c2[nH]c3ccc(C4CCN(C5CCN(C6CCCC(C(F)(F)F)C6)CC5)CC4)cc3c2C)cc1OC (stereo not drawn) [Example 79] | 2320 | 122
15 | COc1ccc(-c2[nH]c3ccc(C4CCN(C5CCN(CCC(C)C)CC5)CC4)cc3c2C)cc1OC [Example 77, 2-(3,4-dimethoxyphenyl)-5-(1′-isopentyl-[1,4′-bipiperidin]-4-yl)-3-methyl-1H-indole] | 522 | 218
16 | COc1ccc(-c2[nH]c3ccc(C4CCN(C[C@H]5CCCN5)CC4)cc3c2C)cc1OC [Example 108, (R)-2-(3,4-dimethoxyphenyl)-3-methyl-5-(1-(pyrrolidin-2-ylmethyl)piperidin-4-yl)-1H-indole] | 3540 | 861
17 | COc1ccc(-c2[nH]c3ccc(C4CCN(Cc5ccc(N(C)C)cc5)CC4)cc3c2C(C)C)cc1OC [Example 270, 4-((4-(2-(3,4-dimethoxyphenyl)-3-isopropyl-1H-indol-5-yl)piperidin-1-yl)methyl)-N,N-dimethylaniline] | 191 | 1940
18 | COc1ccc(-c2[nH]c3ccc(C4CCN(Cc5ccc(-n6ccnc6)cc5)CC4)cc3c2C)cc1OC [Example 39, 5-(1-(4-(1H-imidazol-1-yl)benzyl)piperidin-4-yl)-2-(3,4-dimethoxyphenyl)-3-methyl-1H-indole] | 1980 | 251
